Experimental data taken from patent US4066762A, “Derivatives of 7-(2-substituted-2-hydroxyiminoacetamido)-3-(1-substituted tetrazol-5-yl thiomethyl-3-cephem-4-carboxylic acid” (SmithKline Corporation, priority 1976, dated 1978).
≈ marks a conversion by molar mass, not a printed value. Where a name gives a salt, the structure may show the parent alone. Read-outs that look alike come from different tables or passages of the source.

Columns and labels:
E. coli SK 12140 = assay: MIC in vitro, E. coli SK 12140 (G-); type: cell-based; conditions: Escherichia coli, SK12140
Text: (§1) Table 1 contains minimum inhibitory concentrations in μg./ml. of a number of representative compounds compared with standard agents.

P. Mirabils PM 444 = assay: MIC in vitro, P. Mirabils PM 444 (G-); type: cell-based
Text: as §1

Strep. Faecalis HH 34358 = assay: MIC in vitro, Strep. Faecalis HH 34358 (G+); type: cell-based; conditions: for MIC: Enterococcus faecalis
Text: as §1

S. Aureus HH 127 = assay: MIC in vitro, S. Aureus HH 127 (G+); type: cell-based; conditions: Staphylococcus aureus
Text: as §1

Salmonella ATCC 12176 = assay: MIC in vitro, Salmonella ATCC 12176 (G-); type: cell-based; conditions: for MIC: Salmonella, ATCC12176, Salmonella ATCC 12176, G-
Text: as §1

Entero. cloacae HH 31254 = assay: MIC in vitro, Entero. cloacae HH 31254 (G-); type: cell-based; conditions: Enterobacter cloacae, HH31254
Text: as §1

Pseudo Aeruginosa HH 63 = assay: MIC in vitro, Pseudo Aeruginosa HH 63 (G-); type: cell-based
Text: as §1

E. coli HH 33779 = assay: MIC in vitro, E. coli HH 33779 (G-); type: cell-based; conditions: Escherichia coli, HH33779
Text: as §1

[1] = tested on: Entero. aerogenes ATCC 13048; assay: MIC in vitro, Entero. aerogenes ATCC 13048 (G-); type: cell-based; conditions: Klebsiella aerogenes
Text: as §1

Kleb. pneumoniae SK 1200 = assay: MIC in vitro, Kleb. pneumoniae SK 1200 (G-); type: cell-based; conditions: Klebsiella pneumoniae, SK1200
Text: as §1

Kleb. pneumoniae SK 4200 = assay: MIC in vitro, Kleb. pneumoniae SK 4200 (G-); type: cell-based; conditions: Klebsiella pneumoniae, SK4200
Text: as §1

S. villaluz SK 70390 = assay: MIC in vitro, S. villaluz SK 70390 (G+); type: cell-based; conditions: read-out: MIC in vitro
Text: as §1

S. Aureus SK 23390 = assay: MIC in vitro, S. Aureus SK 23390 (G+); type: cell-based; conditions: Staphylococcus aureus
Text: as §1

Proteus morgani 179 = assay: MIC in vitro, Proteus morgani 179 (G-); type: cell-based
Text: as §1

[2] = tested on: Serratia Marcescens ATCC 13880; assay: MIC in vitro, Serratia Marcescens ATCC 13880 (G-); type: cell-based
Text: as §1

Kleb. pneumo. 4200 = assay: standard in vivo mouse protection test, Kleb. pneumo. 4200; conditions: sc
Protocol: (§2) C is 7β-(syn-2-hydroxyimino-2-phenylacetamido)-3-(1-sulfomethyltetrazol-5-ylthiomethyl)-3-cephem-4-carboxylic acid disodium salt. […] 4200; 25 mg./kg. against E. coli 12140; Compound B 45 mg./kg. against Kleb. and 43, >50 against E. coli.

E. coli 12140 = assay: standard in vivo mouse protection test, E. coli 12140; conditions: s.c.
Protocol: as §2

[3] = P. Mirabils PM 444, G-, read-out: MIC in vitro
[4] = ATCC13048, Entero. aerogenes ATCC 13048, G-, read-out: MIC in vitro
[5] = ATCC13880, Serratia Marcescens ATCC 13880, G-, read-out: MIC in vitro
[6] = Escherichia coli, 12140, sc, read-out: ED50

Compound | MIC (E. coli SK 12140) [µg/mL] | MIC (P. Mirabils PM 444; [3]) [µg/mL] | MIC (Strep. Faecalis HH 34358) [µg/mL] | MIC (S. Aureus HH 127) [µg/mL] | MIC (Salmonella ATCC 12176) [µg/mL] | MIC (Entero. cloacae HH 31254) [µg/mL] | MIC (Pseudo Aeruginosa HH 63) [µg/mL] | MIC (E. coli HH 33779) [µg/mL] | MIC [1, 4] [µg/mL] | MIC (Kleb. pneumoniae SK 1200) [µg/mL] | MIC (Kleb. pneumoniae SK 4200) [µg/mL] | MIC (S. villaluz SK 70390; S. villaluz SK 70390, G+) [µg/mL] | MIC (S. Aureus SK 23390) [µg/mL] | MIC (Proteus morgani 179) [µg/mL] | MIC [2, 5] [µg/mL] | ED50 (Kleb. pneumo. 4200) [mg/kg] | ED50 (E. coli 12140; [6]) [mg/kg] | further results
CO/N=C(\C(=O)N[C@@H]1C(=O)N2C(C(=O)O)=C(CSc3nnnn3CS(=O)(=O)O)CS[C@H]12)c1ccco1 [A, 7β-(syn-2-methoxyimino-2-α-furylacetamido)-3-(1-sulfomethyltetrazol-5-ylthiomethyl)-3-cephem-4-carboxylic acid disodium salt hydrate] | 0.8 | 1.6 | 100 | 3.1 | 0.4 | 0.8 | 100 | 1.6 | 3.1 | 0.4 | 0.8 | > 200 | 3.1 | 1.6 | 3.1 | – | – | MIC (P. Mirabils PM 444; read-out: MIC in vitro, P. Mirabils PM 444, G-): 0.2 µg/mL; MIC in vitro (Strep. Faecalis HH 34358; disodium salt hydrate): 200 µg/mL; MIC in vitro (Salmonella ATCC 12176; Salmonella ATCC 12176, G-, disodium salt hydrate): 0.8 µg/mL; MIC ([2]; Serratia marcescens, ATCC13880, read-out: MIC in vitro, Serratia Marcescens ATCC 13880, G-): 6.3 µg/mL
Cc1nnc(SCC2=C(C(=O)O)N3C(=O)[C@@H](NC(=O)Cn4cnnn4)[C@H]3SC2)s1 [Cefazolin, reference compound] | 0.8 (≈ 1.76 µM) | 3.1 (≈ 6.82 µM) | 6.3 (≈ 13.9 µM) | 0.4 (≈ 0.88 µM) | 0.8 (≈ 1.76 µM) | 0.8 (≈ 1.76 µM) | > 200 | 1.6 (≈ 3.52 µM) | 1.6 (≈ 3.52 µM) | 0.4 (≈ 0.88 µM) | 1.6 (≈ 3.52 µM) | – | 0.2 (≈ 0.44 µM) | 200 (≈ 440 µM) | > 200 | – | – | –
CO[C@@]1(NC(=O)Cc2cccs2)C(=O)N2C(C(=O)O)=C(COC(N)=O)CS[C@@H]21 [Cefoxitin, reference compound] | 6.3 (≈ 14.7 µM) | 6.3 (≈ 14.7 µM) | 200 (≈ 468 µM) | 1.6 (≈ 3.74 µM) | 3.1 (≈ 7.25 µM) | 6.3 (≈ 14.7 µM) | > 200 | 12.5 (≈ 29.2 µM) | 25 (≈ 58.5 µM) | 3.1 (≈ 7.25 µM) | 6.3 (≈ 14.7 µM) | 100 (≈ 234 µM) | 3.1 (≈ 7.25 µM) | 12.5 (≈ 29.2 µM) | 12.5 (≈ 29.2 µM) | – | – | –
CO/N=C(\C(=O)N[C@@H]1C(=O)N2C(C(=O)O)=C(COC(N)=O)CS[C@H]12)c1ccco1 [Cefuroxime, reference compound] | 6.3 (≈ 14.8 µM) | 1.6 (≈ 3.77 µM) | 12.5 (≈ 29.5 µM) | 0.8 (≈ 1.89 µM) | 3.1 (≈ 7.3 µM) | 3.1 (≈ 7.3 µM) | > 200 | 6.3 (≈ 14.8 µM) | 6.3 (≈ 14.8 µM) | 3.1 (≈ 7.3 µM) | 6.3 (≈ 14.8 µM) | > 200 | 1.6 (≈ 3.77 µM) | 50 (≈ 118 µM) | 12.5 (≈ 29.5 µM) | – | – | –
CO/N=C(\C(=O)N[C@@H]1C(=O)N2C(C(=O)O)=C(CSc3nnnn3CS(=O)(=O)O)CS[C@H]12)c1ccccc1 [Compound B, 7β-(syn-2-methoxyimino-2-phenylacetamido)-3-(1-sulfomethyltetrazol-5-ylthiomethyl)-3-cephem-4-carboxylic acid disodium salt] | 6.3 | – | 25 | 1.6 | 1.6 | 3.1 | 200 | 6.3 | – | 3.1 | 3.1 | – | 1.6 | 6.3 | 12.5 | 45 | 43 | MIC ([1]; ATCC13048, read-out: MIC in vitro): 12.5 µg/mL; MIC (S. villaluz SK 70390): > 200 µg/mL; ED50 (E. coli 12140; disodium salt): > 50 mg/kg
O=C(O)C1=C(CSc2nnnn2CS(=O)(=O)O)CS[C@@H]2[C@H](NC(=O)/C(=N\O)c3ccccc3)C(=O)N12 [Compound C, 7β-(syn-2-hydroxyimino-2-phenylacetamido)-3-(1-sulfomethyltetrazol-5-ylthiomethyl)-3-cephem-4-carboxylic acid disodium salt] | 1.6 | – | 6.3 | 0.8 | 0.8 | 1.6 | > 200 | 3.1 | 6.3 | 0.8 | 1.6 | 100 | 0.8 | 25 | 12.5 | 4.4 | 25 | –
